Patent US20090053338A1, “Method for the preparation of phytoprogestogenic extracts from rhizoma ligusticum chuanxiong and uses thereof” (priority 2003, published 2009)

What was measured:
male Sprague-Dawley rats [1] = conditions: subcutaneous; MPA 10 mg
Excerpt: Each data point is the Mean±SEM of samples obtained from 6 different rats. Bars indicate progestogenic activity of original MPA and L.C. extract in-vitro. Progestogenic activity is expressed as fold increase compared to cells exposed to vehicle only.

male Sprague-Dawley rats [2] = system: male Sprague-Dawley rats
Procedure: Sprague-Dawley rats were fasted overnight. Two mls of L.C. (2 g), MPA (10 mg) and vehicle (60% Ethanol) were orally fed to male rats using gavage tubes. Serum samples were collected from the tail vein at indicated time points, before and after L.C. administration. Bioactive progestogens were extracted from serum and tested for progestogenic activity using our receptor-based bioassay. Each data point is the Mean±SEM of samples obtained from 6 different rats. Bars indicate progestogenic activity of original MPA and L.C. extract in-vitro. Progestogenic activity is expressed as fold increase compared to cells exposed to vehicle only.
To determine the pharmacokinetics and bioequivalence of LC, we measured the progestogenic effect of rat serum sampled at defined time points after oral doses of LC (2 g/2 ml), MPA (10 mg/2 ml), and vehicle only (2 ml 60% ethanol). Serum samples were extracted and progesterone effect measured as in Example 12.

[3] = system: subjects with transient ischemic attack; conditions: cited from earlier work
[4] = molecular target: T1, human progesterone receptor (PR-B) (Homo sapiens, UniProt P06401); assay: cell-based progesterone reporter gene assay (PR-B + PRE2-TATA-LUC luciferase) in HeLa cells; conditions: peak activity at 10 μM
T1 construct: DNA encoding the full length human progesterone receptor (PR-B); expressed in transfected cells; host or cells: HeLa cells
T1 sequence (P06401 1-933): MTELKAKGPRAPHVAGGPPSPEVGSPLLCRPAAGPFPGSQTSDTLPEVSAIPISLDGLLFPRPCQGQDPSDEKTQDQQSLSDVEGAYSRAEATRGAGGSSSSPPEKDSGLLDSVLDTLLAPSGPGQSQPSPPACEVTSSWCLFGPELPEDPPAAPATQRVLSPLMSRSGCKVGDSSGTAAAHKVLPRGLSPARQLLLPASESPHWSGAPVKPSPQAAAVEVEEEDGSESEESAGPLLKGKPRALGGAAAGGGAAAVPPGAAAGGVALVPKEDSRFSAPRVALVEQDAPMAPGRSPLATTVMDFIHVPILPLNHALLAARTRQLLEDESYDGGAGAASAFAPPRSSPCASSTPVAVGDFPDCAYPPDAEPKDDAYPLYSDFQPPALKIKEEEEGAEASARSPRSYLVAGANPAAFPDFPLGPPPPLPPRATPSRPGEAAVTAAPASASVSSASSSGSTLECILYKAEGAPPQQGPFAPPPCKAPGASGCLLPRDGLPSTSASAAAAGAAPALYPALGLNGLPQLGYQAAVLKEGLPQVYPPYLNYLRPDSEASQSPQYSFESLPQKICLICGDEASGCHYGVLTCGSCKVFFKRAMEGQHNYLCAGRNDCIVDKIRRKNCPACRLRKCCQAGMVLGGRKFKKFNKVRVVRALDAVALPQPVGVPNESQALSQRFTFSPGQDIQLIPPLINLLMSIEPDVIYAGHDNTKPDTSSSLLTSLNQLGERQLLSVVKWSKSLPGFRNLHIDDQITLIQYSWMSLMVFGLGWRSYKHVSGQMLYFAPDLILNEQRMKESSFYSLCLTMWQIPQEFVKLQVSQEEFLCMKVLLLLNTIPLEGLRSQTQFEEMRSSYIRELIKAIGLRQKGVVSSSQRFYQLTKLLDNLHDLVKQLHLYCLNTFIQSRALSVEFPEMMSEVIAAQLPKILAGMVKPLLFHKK
Excerpt: In the progestogen receptor assay of the invention, HeLa cells grown in 24-well microtiter plates were transiently co-transfected with two plasmids using lipofectamine. The first plasmid consisted of DNA encoding the full length human progesterone receptor (PR-B), and the second a progesterone reporter gene (PRE2-TATA-LUC) comprising a luciferase reporter gene driven by two copies of the progesterone response element from the aminotransferase gene. […] Replicate wells were exposed to vehicle only (ethanol) and used as negative controls. After the period of incubation, cells were rinsed with PBS buffer, lysis buffer (Promega Corp) was added, and cell lysates collected for measurement of luciferase activity. Progestogenic activity of the ligands was expressed as fold-increase in luciferase activity compared with control cells exposed to vehicle only. All data points were in triplicate. […] To begin the search for phyto-progestogens in Traditional Chinese herbal medicines, The Pharmacopoeia of the People's Republic of China (1997) was consulted and 13 herbs reported to have “uterotonic activity” were selected for screening. […] The herbal residues were re-extracted a second time with the same solvent for 2-3 hours. […] Dried extracts were weighed and re-suspended in 100% ethanol or methanol to a concentration 50 mg/ml.

[5] = system: patients with acute cerebral infarction; conditions: cited from earlier work

## CC(=O)O[C@]1(C(C)=O)CC[C@H]2[C@@H]3C[C@H](C)C4=CC(=O)CC[C@]4(C)[C@H]3CC[C@@]21C [MPA, 6α-methyl-17α-hydroxy-progesterone acetate]
Male Sprague-Dawley rats [1]
  peak progestogenic activity versus serum from rats administered vehicle only: about 5 fold
Male Sprague-Dawley rats [2]; male, Sprague-Dawley, rat, in vivo, po
  maintenance of peak / high levels of progestogenic effect: maintained throughout the 24 hour of sampling
Male Sprague-Dawley rats [2]; oral
  peak progesterone activity in words: comparable to that observed with saturating doses of progesterone in-vitro
Male Sprague-Dawley rats [2]; oral, MPA 10 mg/2 ml
  serum activity versus baseline of rats administered vehicle only: about 5 fold

## CC(=O)Oc1ccccc1C(=O)O [aspirin]
[3]
  total effective rate: 61.7%

## CC(=O)O[C@]1(C(C)=O)CC[C@H]2[C@@H]3C=C(C)C4=CC(=O)CC[C@]4(C)[C@H]3CC[C@@]21C [megesterol acetate]
[4]
  increase in hormonal activity over controls exposed to vehicle only at peak activity: 300 fold

## CC(=O)[C@H]1CC[C@H]2[C@@H]3CCC4=CC(=O)CC[C@]4(C)[C@H]3CC[C@]12C [progesterone]
[4]
  increase in hormonal activity over controls exposed to vehicle only at peak activity: 300 fold

## dextran 40
[5]
  total therapeutic efficacy rate: 62.8%
